The values that follow come from patent US8557823B2, “Family of PFKFB3 inhibitors with anti-neoplastic activities” (Advanced Cancer Therapeutics, LLC, priority 2007, dated 2013).

Converted amounts (≈) assume the structure as drawn. Structures can show the parent of a compound that is named as a salt.

One data set relates to U937. The data set is described as follows: Cancer cell proliferation, Alamar Blue assay 72 hours, U937. It is filed as cell-based. Particulars: Homo sapiens, U-937. As to the method:
(§1) The ability of the compounds described herein to kill or inhibit the proliferation of cancer cells was measured using either the MTT assay, the Alamar Blue assay, or the Cell Titer Glow® assay using 48 or 72 hours exposure. […] The procedures are briefly described below. Cells of the desired tumor cell line were plated at 2×10^5 cells/ml in 96 well plates. Twice the indicated concentrations of the compounds of the invention were added to cells the following day in an equal volume of media. 72 hours later, cells were lysed and subjected to ATP determination using the CellTiter Glo-Luminescent Cell Viability Assay kit (Promega, Madison, Wis.). Experiments were done in triplicate. When using the MTT assay or the Alamar blue assay, the experimental conditions are essentially similar; at the end of the incubation period, 20 microl of the MTT solution is added per well and the samples are incubated for an additional four hours, rinsed and the absorbance at 570 nm measured. Results for the inhibition of cells proliferation are reported as IC50 as commonly done (the concentration leading to a 50% inhibition of proliferation of the cell population) and are listed in the Tables below. Table 4 lists the IC50 for the compounds of the invention in several cell lines including Jurkat, Calu-6, NCI-H82, U937, or NCI-H1437 cancer cell lines. Table 5 lists the IC50 of PFK-070 in a panel of 10 cell lines.

The next data set has as its system Jurkat cells. The data set is described as follows: Inhibition of 2-deoxyglucose uptake, Example 14. It is filed as cell-based. Particulars: Homo sapiens, 3 hours. Here is the method:
Inhibition of PFKFB3 results in inhibiting glycolysis. Several feedback or feedforward activation and inhibition mechanisms exist so that, by a feedback mechanism, inhibiting the activity of PFKFB3 might inhibit glucose uptake by cells. An assay was developed to determine if there was inhibition of glucose uptake following exposure to the compounds on the invention. Briefly, Jurkat cells were plated at 1×10^5/mL in RPMI 1640 supplemented with 10% fetal bovine serum and 50 μg/mL gentamicin sulfate. Cells were immediately treated with vehicle or 0.5 μmol/L of the compound of the invention for 3 hours and subsequently placed in glucose-free RPMI 1640 for 30 min. ^14C-2-deoxyglucose (0.25 μCi/mL; Perkin Elmer) was added for an additional 60 min and cells were then washed three times with ice-cold RPMI 1640 containing no glucose. Cell lysates were collected in 500 μL of 0.1% SDS, and scintillation counts (counts/min) were measured on 400 μL of lysate. Counts were normalized to protein concentration.

The subject of the next data set is NCI-H82. The data set is described as follows: Cancer cell proliferation, Alamar Blue assay 72 hours, NCI-H82. It is filed as cell-based. Particulars: Homo sapiens. As to the method: as §1
The test system of another data set is Calu-6. The data set is described as follows: Cancer cell proliferation, Alamar Blue assay 72 hours, Calu-6. Particulars: Homo sapiens. Type of data set: cell-based. Here is the method: as §1
A further data set deals with Jurkat. Briefly: Cancer cell proliferation, Alamar Blue assay 72 hours, Jurkat. Particulars: Homo sapiens, Jurkat, 72 h. It is filed as cell-based. Here is the method:
as §1

Data set [1] in a line: Solubility in dosing solution Cre:EtOH:Saline. Type of data set: physicochemical. Particulars: Cremophor:EtOH:Saline 5:5:90, aqueous with cosolvent or surfactant or cyclodextrin, kinetic from dmso stock; 5:5:90 Cremophor:EtOH:Saline, after 24 hours at room temperature. An excerpt:
(§2) Chemical properties of the compounds of the invention were investigated, mainly the solubility in several solvents and pharmaceutically accepted excipients or dosing solutions and the stability of these solutions. […] The increase in solubility when comparing the effect of chemical substituents is unpredictable and surprising if one compares the solubility values of PFK-070 to PFK-091 and PFK-070 to PFK-141 and 145 in a dosing solution that could be used to treat cancer patients (See Table 8A below). Briefly, selected compounds of the invention are dissolved in a small volume of the solvents/excipients of interest (Cremophor, or Cremophor:etoh or Tween80:etoh) at room temperature and diluted 1:9 in saline and left at room temperature for over 8 or 24 hours. Both the physical (absence of a precipitate) and the chemical stability (less than 5% degradation) of the solutions are measured (observation and HPLC after filtration).

A short description of data set [2]: Microsomal stability in human liver microsomes. Particulars: 0 min. It is filed as in vitro ADME. As to the method: Microsomal stability in vitro in different biologic media (liver microsomes, S9 fraction, hepatocytes) and species is ascertained to evaluate the rate at which a compound undergoes metabolism in the experimental in vitro conditions. […] Experimental conditions are briefly described here: the stability in human liver microsomes of several compounds was done over […] at 37° C. using pooled mixed gender human liver microsomes. These liver microsomes were prepared at 1.0 mg/ml of microsomal protein in a 100 mM potassium phosphate pH 7.4 buffer with 1 mM NADPH. The media was incubated at 37° C. with the compound in solution in DMSO. The concentration of the compound was followed by LC/MS-MS as a function of time. […] Testosterone was used as a positive control. The same experiment was performed with mouse, rat or dog liver microsomes instead of human liver microsomes.

In a further data set the test system is NCI-H1437. The data set is described as follows: Cancer cell proliferation, Alamar Blue assay 72 hours, NCI-H1437. Type of data set: cell-based. Particulars: Homo sapiens. As to the method: as §1
Data set [3] has as its target T1, PFKFB3, the recombinant protein (Homo sapiens, UniProt Q16875).
T1 construct: made in house; host or cells: E. coli
Briefly: Inhibition of recombinant PFKFB3 (Adapta Kinase assay). Particulars: read-out: IC50 EArec. Type of data set: biochemical. As to the method:
PFKFB3 was prepared by expression in E. coli and purified by GST column and column chromatography. […] The recombinant protein was pure and active as determined by the results of a kinase activity assay commercially available (Adapta® Kinase assay).

Data set [4] in a line: Solution stability in clear and amber vials. It is filed as physicochemical. Particulars: Cre:EtOH:Saline.
Source text: as §2
Furthermore, the solution stability of the compounds was investigated and it was discovered that, in normal conditions, they lack the appropriate solution stability as they undergo a rapid photoisomerization; this lack of solution stability is such that methods to prevent these compounds from reacting in solutions are necessary if these compounds are to be used as chemotherapeutic agents for the treatment of cancer patients.

Data set [5] can be described thus: Solubility profile in aqueous media. Type of data set: physicochemical. Particulars: 23 °C, aqueous buffer.

T1 sequence (Q16875 whole entry): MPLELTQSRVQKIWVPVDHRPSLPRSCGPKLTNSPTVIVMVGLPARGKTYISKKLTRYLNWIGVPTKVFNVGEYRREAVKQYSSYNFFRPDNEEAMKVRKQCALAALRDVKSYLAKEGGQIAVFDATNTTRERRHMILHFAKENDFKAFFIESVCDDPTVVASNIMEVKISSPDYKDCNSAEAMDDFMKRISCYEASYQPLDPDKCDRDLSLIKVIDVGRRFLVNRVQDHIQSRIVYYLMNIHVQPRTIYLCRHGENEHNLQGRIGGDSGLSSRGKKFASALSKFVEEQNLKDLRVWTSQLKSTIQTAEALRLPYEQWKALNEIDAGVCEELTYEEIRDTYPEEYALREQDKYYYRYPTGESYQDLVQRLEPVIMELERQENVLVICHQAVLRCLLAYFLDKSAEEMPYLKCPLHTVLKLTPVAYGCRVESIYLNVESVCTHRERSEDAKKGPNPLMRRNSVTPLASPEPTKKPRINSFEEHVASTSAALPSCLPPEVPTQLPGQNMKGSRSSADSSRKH

Regarding `O=C(/C=C/c1ccc2ccccc2n1)c1ccccc1` [ACT-PFK-076, 1-Phenyl-3-quinolin-2-yl-propenone], the IC50 with U937 amounted to 2.5 µM; in the data set on NCI-H82, 4 µM; in the data set on Calu-6, 3.3 µM; in the data set with Jurkat it was 6.4 µM. Moreover, the inhibition at 0.5 µM in the data set on Jurkat cells worked out at 27%.
As for `O=C(/C=C/c1ccc2ccccc2n1)c1ccccn1` [ACT-PFK-085, 1-Pyridin-2-yl-3-quinolin-2-yl-propenone], the IC50 was determined as 2.9 µM in the data set with U937, 2.7 µM with NCI-H82, 6.9 µM with Calu-6 and 4.9 µM with Jurkat. The inhibition at 0.5 µM in the data set on Jurkat cells was found to be 31%.
In the case of `Nc1ccc(C(=O)/C=C/c2ccc3ccccc3n2)cc1` [ACT-PFK-089, 1-(4-Amino-phenyl)-3-quinolin-2-yl-propenone], the IC50 in the data set on U937 turned out to be 1.6 µM; in the data set with NCI-H82, 0.9 µM; in the data set with Calu-6 it was 2.1 µM; in the data set on Jurkat it was 4.2 µM.
`NC(=O)c1ccc(C(=O)/C=C/c2ccc3ccccc3n2)cc1` [ACT-PFK-091, 4-(3-Quinolin-2-yl-acryloyl)-benzamide] registered a solubility at 24 h in data set [1] of 0.2 mg/mL (≈ 662 µM). Besides, the IC50 in the data set with U937 came out at 0.4 µM; in the data set on NCI-H82, 0.7 µM; in the data set with Calu-6, 0.2 µM; in the data set with NCI-H1437, 4.2 µM; with Jurkat, 0.6 µM. In the data set with Jurkat cells, this compound returned an inhibition at 0.5 µM of 11%. Besides, the “Mean metabolized (%)” value in data set [2] is given as 0%.
In data set [1], `Cc1cccc2ccc(/C=C/C(=O)c3ccncc3)nc12` [ACT-PFK-141, 3-(8-Methyl-quinolin-2-yl)-1-pyridin-4-yl-propenone] came in with a solubility at 24 h of 0.8 mg/mL (≈ 2920 µM). In data set [2], the “Mean metabolized (%)” value was found to be 0%. The IC50 worked out at 1.1 µM in the data set on NCI-H82, 0.21 ± 0.051 µM in data set [3], 5.4 µM in the data set on NCI-H1437 and 0.9 µM in the data set with Jurkat.
In the case of `O=C(/C=C/c1ccc2ccccc2n1)c1ccnc(F)c1` [ACT-PFK-143, 1-(2-Fluoro-pyridin-4-yl)-3-quinolin-2-yl-propenone], the IC50 in the data set with NCI-H82 stood at 2.6 µM; in [3], 0.654 ± 0.095 µM; in the data set with NCI-H1437 it was 4.3 µM; with Jurkat, 1.7 µM.
The compound `O=C(/C=C/c1ccc2cccc(F)c2n1)c1ccncc1` [ACT-PFK-145, 3-(8-Fluoro-quinolin-2-yl)-1-pyridin-4-yl-propenone] displayed a solubility at 24 h in data set [1] of 0.1 mg/mL (≈ 359 µM). In data set [2], the “Mean metabolized (%)” value amounted to 0%. Moreover, the IC50 with NCI-H82 turned out to be 1.5 µM; in data set [3] it was 0.294 ± 0.038 µM; in the data set with NCI-H1437, 4.7 µM; in the data set on Jurkat it was 0.9 µM.
Regarding `O=C(/C=C/c1ccc2cc(O)ccc2n1)c1ccncc1` [ACT-PFK-149, 3-(6-Hydroxy-quinolin-2-yl)-1-pyridin-4-yl-propenone], in data set [1], the solubility at 24 h is 0.3 mg/mL (≈ 1090 µM). Besides, in data set [3], the IC50 worked out at 0.811 ± 0.266 µM.
With `CNc1cccc2ccc(/C=C/C(=O)c3ccncc3)nc12` [ACT-PFK-151, 3-(8-Methylamino-quinolin-2-yl)-1-pyridin-4-yl-propenone], the solubility at 24 h in data set [1] came out at 1.9 mg/mL (≈ 6570 µM). Further, the “Mean metabolized (%)” value in data set [2] is reported as 0%. The IC50 in [3] was found to be 0.289 ± 0.056 µM.
Take `Cc1ccc2ccc(/C=C/C(=O)c3ccncc3)nc2c1` [ACT-PFK-154, 3-(7-Methyl-quinolin-2-yl)-1-pyridin-4-yl-propenone]: the “Mean metabolized (%)” value in data set [2] is reported as 0%. For the same compound, the IC50 in data set [3] was found to be 0.622 ± 0.039 µM.
With `O=C(/C=C/c1ccc2cccc(O)c2n1)c1ccncc1` [PFK-070, HCl, 3-(8-Hydroxy-quinolin-2-yl)-1-pyridin-4-yl-propenone], the “Solubility stability, Amber Vials” value in data set [4] (0 hrs) is 1.0 mg/mL; in [4] (2 hrs) it was “No change”; in data set [4] (4 hrs) it was “No change”; in data set [4] (8 hrs), “No change”. Further, the “appearance of solution, Clear Vials” value in data set [4] (2 hrs), in [4] (4 hrs) and in [4] (8 hrs) was “Change in color” throughout. The solubility at 0 h in data set [4] (Cremophor:EtOH:Saline solution, aqueous with cosolvent or surfactant or cyclodextrin, kinetic from dmso stock, 0 hrs) turned out to be 1 mg/mL. Also, the solubility at 2 h in data set [4] (Cremophor:EtOH:Saline solution, aqueous with cosolvent or surfactant or cyclodextrin, kinetic from dmso stock, 2 hrs) is 0.9 mg/mL. In data set [4] (Cremophor:EtOH:Saline solution, aqueous with cosolvent or surfactant or cyclodextrin, kinetic from dmso stock, 4 hrs), the solubility at 4 h was determined as 0.8 mg/mL. In [4] (Cremophor:EtOH:Saline solution, aqueous with cosolvent or surfactant or cyclodextrin, kinetic from dmso stock, 8 hrs), this compound had a solubility at 8 h of less than 0.7 mg/mL.
For `Cc1cccc2ccc(/C=C/C(=O)c3ccncc3)nc12` [PFK-141, HCl, 3-(8-Methyl-quinolin-2-yl)-1-pyridin-4-yl-propenone], the solubility turned out to be 1.7 mg/mL in data set [5] (pH = 5) and 1.9 mg/mL in [5] (pH = 7).
For `Cc1ccc2ccc(/C=C/C(=O)c3ccncc3)nc2c1` [PFK-154, HCl, 3-(7-Methyl-quinolin-2-yl)-1-pyridin-4-yl-propenone], in that order: 2.4 mg/mL and 3.4 mg/mL.
